In US20150037253A1, “METAL COMPLEXES AS IMAGING AGENTS” (The University of Melbourne, priority 2011, published 2015):
Blank lines part the entries; values can stand above or below the compound they belong to.

Columns and labels:
Aβ plaques = assay: Fluorescence staining of human AD brain tissue sections, co-localisation with 1E8 immunostaining; format: binding; details: post-mortem AD human brain, 7 μm serial sections, BSA pre-treated
From the text: Fluorescence Staining of Human AD Brain. Tissues(^10) Paraffin preserved brain tissue blocks were provided by the Victoria Brain Bank Network. Brain tissue was collected at autopsy. The National Neural Tissue Resource Centre performed Sourcing and preparation of human brain tissue. AD pathologic diagnosis was made according to standard National Institute on Aging-Reagan Institute criteria. Determination of age-matched Human control (HC) cases was subject to the above criteria. The AD and HC brain tissues sections ([…]) were first de-paraffined (xylene, 3×2 min) followed by rehydration (soaking in a series of 100%, 90%, 70% and 0% v/v ethanol/di water). The hydrated tissue sections were washed in phosphate buffer saline (PBS, 5 min). Auto-fluorescence of the tissue was quenched using potassium permanganate (0.25% in PBS, 20 min) and washing with PBS (2×2 min) to remove the excess. […] Finally, the sections were washed with PBS (3×2 min), di water and mounted with non-fluorescent mounting media (Dako), Fluorescence images were visualised using a Leica (Bannockburn, Ill.) DM1RB microscope. […] The tissue was subsequently examined by fluorescent microscopy (epi-fluorescence, λex=420 nm, λex=470 nm) and compared to a sequential brain tissue cross section immunostained with an Aβ antibody (1 E8). […]

[1] = Cyclic voltammetry, Cu(II)/Cu(I) reduction potential; format: physicochemical; details: vs. SCE, in DMF, glassy carbon electrode
Protocol: Cyclic voltammograms were recorded using an AUTOLAB PGSTAT100 equipped with GPES V4.9 software. Measurements of the complexes were carried out at approximately 1×10^−3 M in dimethylformamide with tetrabutylammonium tetrafluoroborate (1×10^−1 M) as electrolyte using a glassy carbon disk (d, 3 mm) working electrode, a Pt wire counter/auxiliary electrode, and a Ag/Ag^+ pseudo reference electrode (silver wire in H2O (KCl (0.1 M)) AgNO3 (0.01 M)). Ferrocene was used as an internal reference (Em(Fc/Fc^+)=0.54 V vs. SCE), where Em refers to the midpoint between a reversible reductive (Epc) and oxidative (Epa) couple, given by Em=(Epc+Epa)/2. Irreversible systems are only given reductive (Epc) and oxidative (Epa) values, respectively.

[2] = Partition coefficients (Log D) for 64Cu complexes; format: physicochemical; details: 64Cu complex of the listed ligand

binding to Aβ plaques (co-localisation of epi-fluorescence with 1E8 antibody immunostaining) (Aβ plaques): binding selectively to Aβ plaques
SMILES: CC(=N\NC(=S)NCCN(C)C)/C(C)=N/Nc1ccc(/C=C/c2ccc(N(C)C)cc2)cn1 [Example H2L3, Diacetyl-2-((E)-2-hydrazino-pyridinyl-4-(4′-N,N-dimethylaminostilbene))-(4-dimethylaminoethyl-3-thiosemicarbazone)]

reduction potential Em (Cu^II/Cu^I couple) [1]: −0.59 V
SMILES: CN=C([S-])N/N=C(C)/C(C)=N/NC([S-])=NC.[Cu+2] [CuII (atsm)]

Log D of complex [2]: 1.48
SMILES: CNC(S)=NN=C(C)C(C)=NN=C(S)NC [atsmH2a]
